Read-outs that look alike come from different tables or passages of the source.
How the values were obtained:
[1] = target: T1, muscarinic M3 receptors (Cavia porcellus, UniProt H0W1Z3); experiment: Functional affinity estimate for muscarinic M3 receptors in bladders (carbachol-induced intracellular Ca2+ change in bladder smooth muscle cells); assay type: cell-based, guinea pig; conditions: for IC50: inhibition of carbachol-induced Ca2+ increase, guinea pig bladder smooth muscle cells, Fura2; for Ki: IC50 converted by Cheng-Prusoff equation based on EC50 of carbachol
T1 construct: Smooth muscle cells were isolated from guinea pig bladders; from tissue; host or cells: smooth muscle cells freshly isolated from guinea pig bladder
Protocol: Below, the method is described in brief.
Smooth muscle cells were isolated from guinea pig bladders from which the […] had been removed, loaded with a calcium-sensitive fluorescent dye Fura2 and suspended in phenol red-free Hanks' buffer solution supplemented with 20 mM HEPES (pH 7.4) and 0.1% bovine serum albumin. An aliquot of cell suspension (490 μL) was continuously stirred, kept at 28° C. and monitored for the ratio of fluorescence (500 nm) at 340 nm excitation to that at 380 nm excitation. To each aliquot, 5 μL of test compound and carbachol solutions were serially added with a 2 minute interval, and the peak increase in the ratio over the level just before stimulation was used in data analysis.

[2] = Evaluation of hygroscopicity (dynamic steam adsorption, weight change); assay type: physicochemical; conditions: 25° C., within the range 5–95% relative humidity
Protocol: A sample (about 5 mg) was placed in a purpose-made quartz holder, and the sample weight at the respective humidity was continuously measured and recorded in the following conditions. The apparatus including data processing was operated according to the method and procedure directed in each device. (Apparatus: dynamic steam adsorption measuring apparatus DVS Advantage, made by SMS)

[3] = Evaluation of stability (1): forced degradation test, impurities by LC; conditions: for Change from Impurity Amt. before Storage (%), Condition 3 / Change from Impurity Amt. before Storage (%), Condition 2: 25° C., 5 days; for Change from Impurity Amt. before Storage (%), Condition 3: NUV (near ultraviolet ray) irradiated; for Change from Impurity Amt. before Storage (%), Condition 3 / Change from Impurity Amt. before Storage (%), Condition 1: tightly closed; for Change from Impurity Amt. before Storage (%), Condition 2: relative humidity 93%, open; for Change from Impurity Amt. before Storage (%), Condition 1: 120° C., 24 hours
Protocol: A sample after storage was dissolved in 1 mL of MeOH and used as a sample solution. The sample solution was diluted 100 times with MeOH and used as a standard solution. Impurities contained in the sample solution was quantitatively analyzed using the standard solution. In this determination, the apparatus including data processing was operated according to the method and procedure directed in each device. (Apparatus: LC-MSD 1100 series, made by Agilent)

[4] = test system: carbachol-evoked bladder contraction; experiment: Inhibitory effects on carbachol-evoked bladder contraction in anesthetized mice; assay type: in vivo; conditions: anesthetized female mice, i.v., carbachol 10 μg/kg, intravesical pressure
Protocol: The method for determination of inhibitory effects of test compounds on bladder contraction is described as follows.
Female mice, weighing 30 to 35 g, were anesthetized with a sub-lethal dose (75 mg/kg, i.v.) of sodium pentobarbital and placed supine on a heating pad to maintain the body temperature. A polyethylene catheter (PE10) was cannulated to the bladder via the urethra and secured by purse-string suture at the external urethral opening. Another catheter was inserted into the femoral vein for injections of drug solutions at a […]. The bladder catheter was connected to a pressure transducer through a three-way stopcock valve. The bladder was emptied by drainage of urine through the catheter, and then distended with about 100 μL of physiological saline, and the intravesical pressure was measured.
After intravesical pressure stabilization, the muscarinic agonist carbachol (10 μg/kg) was administered repeatedly with an interval of 15 minutes or longer. By this means, bladder contractions occurred in a reproducible manner over 2 hours without deterioration of physical conditions. After three responses to carbachol were obtained, a test compound injection was followed by carbachol administration 10 minutes later and this procedure was repeated with increasing doses of the test compound. In four or five mice per test compound, the percent inhibition of means of prior drug responses was obtained and the dose of test compound required for 50% inhibition (ID50) was estimated by the linear regression analysis. Mice showing rhythmic bladder constriction were not used for the data analysis.

T1 sequence (H0W1Z3 1-590): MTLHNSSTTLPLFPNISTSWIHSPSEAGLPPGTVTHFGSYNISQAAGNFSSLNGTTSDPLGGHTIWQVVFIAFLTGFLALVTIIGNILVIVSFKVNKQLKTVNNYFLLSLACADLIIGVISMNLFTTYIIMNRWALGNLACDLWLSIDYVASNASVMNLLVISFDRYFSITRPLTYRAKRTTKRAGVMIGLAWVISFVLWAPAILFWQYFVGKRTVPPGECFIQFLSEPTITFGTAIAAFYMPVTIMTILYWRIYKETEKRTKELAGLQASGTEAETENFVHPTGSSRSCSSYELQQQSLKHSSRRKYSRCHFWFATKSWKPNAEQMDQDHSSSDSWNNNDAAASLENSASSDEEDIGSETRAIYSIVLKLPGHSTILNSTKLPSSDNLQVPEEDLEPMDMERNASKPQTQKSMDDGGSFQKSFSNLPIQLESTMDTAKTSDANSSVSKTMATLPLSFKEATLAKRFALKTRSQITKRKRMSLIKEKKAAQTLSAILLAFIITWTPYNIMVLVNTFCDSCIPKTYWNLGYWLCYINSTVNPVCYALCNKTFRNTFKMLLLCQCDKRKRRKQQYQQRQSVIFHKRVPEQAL

| Compound | IC50 ([1]; IC50 (ng/mL)) [pM] | Ki ([1]; Ki (nM)) [nM] | Weight Change (%) [2] [%] | Change from Impurity Amt. before Storage (%), Condition 3 [3] [%] | Change from Impurity Amt. before Storage (%), Condition 2 [3] [%] | Change from Impurity Amt. before Storage (%), Condition 1 [3] [%] | Impurities before Storage (%) [3] [%] | Ki ([1]; read-out: Ki) [nM] | IC50 [1] [ng/mL] | Increase of impurities under heat ([3]; Condition 1 of Test Example 2 (stability test to heat)) | ID50 (dose required for 50% inhibition of bladder contraction) [4] [mg/kg] | Change from Impurity Amt. before Storage (%), Condition 3 ([3]; benzenesulfonate) [%] | Change from Impurity Amt. before Storage (%), Condition 2 ([3]; benzenesulfonate) [%] | Change from Impurity Amt. before Storage (%), Condition 1 ([3]; benzenesulfonate) [%] | Impurities before Storage (%) ([3]; benzenesulfonate) |
| --- | --- | --- | --- | --- | --- | --- | --- | --- | --- | --- | --- | --- | --- | --- | --- |
| O=C(O[C@H]1CN2CCC1CC2)N1CCc2ccccc2[C@H]1c1ccccc1 [Example 3, (−)-(3R)-quinuclidin-3-yl(1R)-1-phenyl-1,2,3,4-tetrahydroisoquinoline-2-carboxylate (+)-(2S,3S)-di-O-(4-methylbenzoyl)tartrate] | 10500 | 0.69 ± 0.19 | <1 | 0.0 | 0.1 | 2.3 | 0.0 |  |  |  |  |  |  |  |  |
| O=C(O[C@H]1CN2CCC1CC2)N1CCc2ccccc2[C@H]1c1ccccc1 [Example 2, (−)-(3R)-quinuclidin-3-yl(1R)-1-phenyl-1,2,3,4-tetrahydroisoquinoline-2-carboxylate (+)-(2S,3S)-di-O-benzoyltartrate] | 8830 | 0.62 ± 0.16 | <1 | 0.0 | 0.1 | 0.2 | 0.0 |  |  |  |  |  |  |  |  |
| (−)-(3R)-quinuclidin-3-yl(1R)-1-phenyl-1,2,3,4-tetrahydroisoquinoline-2-carboxylate (−)-L-phenylalaninate [Example 4] |  |  | <2 | −0.3 | −0.3 | 50.8 | 1.9 | 0.66 ± 0.046 | 2.5 ± 0.044 | increase of impurities | 0.090 |  |  |  |  |
| CS(=O)(=O)O.O=C(O[C@H]1CN2CCC1CC2)N1CCc2ccccc2[C@H]1c1ccccc1 [Example 13, (−)-(3R)-quinuclidin-3-yl(1R)-1-phenyl-1,2,3,4-tetrahydroisoquinoline-2-carboxylate methanesulfonate] |  |  | <25 |  |  |  |  |  |  |  |  |  |  |  |  |
| Cc1ccc(S(=O)(=O)O)cc1.O=C(O[C@H]1CN2CCC1CC2)N1CCc2ccccc2[C@H]1c1ccccc1 [Example 11, (−)-(3R)-quinuclidin-3-yl(1R)-1-phenyl-1,2,3,4-tetrahydroisoquinoline-2-carboxylate p-toluenesulfonate] | 4110 | 0.52 ± 0.13 | <6 | 0.0 | 0.1 | −0.1 | 0.5 |  |  |  |  |  |  |  |  |
| Br.O=C(O[C@H]1CN2CCC1CC2)N1CCc2ccccc2[C@H]1c1ccccc1 [Example 7, (−)-(3R)-quinuclidin-3-yl(1R)-1-phenyl-1,2,3,4-tetrahydroisoquinoline-2-carboxylate hydrobromide] | 4060 | 0.66 ± 0.28 | <4 | 0.3 | 0.2 | −0.2 | 0.5 |  |  |  | 0.050 |  |  |  |  |
| CCS(=O)(=O)O.O=C(O[C@H]1CN2CCC1CC2)N1CCc2ccccc2[C@H]1c1ccccc1 [Example 12, (−)-(3R)-quinuclidin-3-yl(1R)-1-phenyl-1,2,3,4-tetrahydroisoquinoline-2-carboxylate ethanesulfonate] | 4020 | 0.54 ± 0.055 | <5 | −0.1 | −0.1 | −0.2 | 1.4 |  |  |  |  |  |  |  |  |
| O=C(O[C@H]1CN2CCC1CC2)N1CCc2ccccc2[C@H]1c1ccccc1.O=S(=O)(O)c1ccccc1 [Example 5-1, (−)-(3R)-quinuclidin-3-yl(1R)-1-phenyl-1,2,3,4-tetrahydroisoquinoline-2-carboxylate benzenesulfonate] |  |  | <1 |  |  |  |  |  |  |  |  | −0.2 | 0.0 | −0.1 | 1.8 |
| O=C(O[C@H]1CN2CCC1CC2)N1CCc2ccccc2[C@H]1c1ccccc1.O=S(=O)(O)c1ccccc1 [Example 5, (−)-(3R)-quinuclidin-3-yl(1R)-1-phenyl-1,2,3,4-tetrahydroisoquinoline-2-carboxylate benzenesulfonate] | 3460 | 0.47 ± 0.12 | <1 |  |  |  |  |  |  |  | 0.059 | −0.1 | 0.1 | 0.3 | 1.6 |
| (−)-(3R)-quinuclidin-3-yl(1R)-1-phenyl-1,2,3,4-tetrahydroisoquinoline-2-carboxylate naphthalene-2-sulfonate [Example 8] |  |  | <4 | 2.6 | 0.2 | 1.3 | 2.0 | 0.55 ± 0.12 | 2.3 ± 0.87 |  | 0.057 |  |  |  |  |
| (−)-(3R)-quinuclidin-3-yl(1R)-1-phenyl-1,2,3,4-tetrahydroisoquinoline-2-carboxylate (+)-camphor-10-sulfonate [Example 10] |  |  | <2 | 0.0 | 0.0 | 0.0 | 0.9 | 0.65 ± 0.12 | 2.6 ± 0.42 |  |  |  |  |  |  |
| (−)-(3R)-quinuclidin-3-yl(1R)-1-phenyl-1,2,3,4-tetrahydroisoquinoline-2-carboxylate sebacate [Example 9] |  |  | <1 | −0.8 | 0.2 | −0.3 | 3.7 | 0.56 ± 0.048 | 2.2 ± 0.33 |  |  |  |  |  |  |
| (−)-(3R)-quinuclidin-3-yl(1R)-1-phenyl-1,2,3,4-tetrahydroisoquinoline-2-carboxylate methyl phosphate [Example 14] |  |  | <11 |  |  |  |  |  |  |  |  |  |  |  |  |

Source: patent publication US7176219B2, “Salts of quinuclidine derivative” (priority 2005, dated 2007)
